This passage reports EC50 results from PubChem BioAssay AID651689 (The Scripps Research Institute Molecular Screening Center, 2012).

Structures are written as SMILES. Calls of active or inactive are those of the source. How the calls were made is not given here. Bounds are passed on as bounds.

This assay has as its target Mu-type opioid receptor (Homo sapiens) (UniProt P35372). The assay is described as follows: OPRM1 activation in single-receptor cells, late-stage follow-up, counter-screen for OPRM1-OPRD1 heterodimer activator project, cell-based, luminescence, dose response (AID 651689). The following applies: OPRM1 cell line, luminescence activation counterscreen. (In general: Counterscreens check selectivity or assay interference.)

Chain of Mu-type opioid receptor (Homo sapiens) (P35372 whole entry, looked up): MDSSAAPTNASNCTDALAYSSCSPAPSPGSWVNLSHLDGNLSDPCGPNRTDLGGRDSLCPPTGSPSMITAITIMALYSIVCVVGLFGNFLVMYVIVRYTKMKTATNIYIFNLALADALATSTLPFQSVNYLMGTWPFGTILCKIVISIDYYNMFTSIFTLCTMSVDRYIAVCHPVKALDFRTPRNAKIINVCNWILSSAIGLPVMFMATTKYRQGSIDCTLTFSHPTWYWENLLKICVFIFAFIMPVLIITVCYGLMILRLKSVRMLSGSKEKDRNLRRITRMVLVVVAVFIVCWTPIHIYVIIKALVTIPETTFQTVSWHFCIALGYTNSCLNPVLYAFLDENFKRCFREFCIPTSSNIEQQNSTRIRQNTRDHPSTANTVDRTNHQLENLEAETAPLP

For `CCOC(=O)C1(CCc2ccccc2)CCN(Cc2ccccc2C)CC1`, the EC50 (usually the concentration giving half of the maximal effect) is “inactive”.

Turning to `CCOC(=O)C1(CCOc2ccccc2)CCN(Cc2cccn2-c2cccnc2)CC1`, the EC50 entry was “inactive”.

As to `CCOC(=O)C1(CCOc2ccccc2)CCN(Cc2ccc(O)c(OC)c2)CC1`, the EC50 was > 40 µM (inactive).

`CCOC(=O)C1(CCc2ccccc2)CCN(Cc2cc(C)cc(C)c2)CC1`: the EC50 was > 40 µM (inactive).

Turning to `CCOC(=O)C1(CC2CCCCO2)CCN(Cc2c(C)cc(C)cc2-n2cccn2)CC1` (stereo unspecified), the EC50 was 7.4 µM.

Consider `CCOC(=O)C1(CCc2ccccc2)CCN(Cc2ccc(NC(C)=O)cc2)CC1`, for which the EC50 result was “inactive”.

With `CCOC(=O)C1(CCc2ccccc2)CCN(Cc2ccc(OC(C)C)c(C#N)c2)CC1`, the EC50 is > 40 µM (inactive).

On to `OCC1(CCc2ccccc2)CCN(Cc2cc(F)ccc2-n2cccn2)CC1`, for which the EC50 was > 40 µM (inactive).

For `CCOC(=O)C1(CCCc2ccccc2)CCN(Cc2cnn(C)c2)CC1`, the EC50 was > 40 µM (inactive).

As for `CCOC(=O)C1(Cc2ccccc2)CCN(Cc2cccn2-c2nccs2)CC1`, the EC50 was > 40 µM (inactive).

With `CCOC(=O)C1(Cc2ccccc2)CCN(Cc2cccn2-c2cccnc2)CC1`, the EC50 is > 40 µM (inactive).
